Laboratory results reported in US8501450B2, “Hepatitis C virus variants” (priority 2005, dated 2013).
Several values for one entry are separate records, joined by “and”; a condition that tells them apart may be missing. Equal values may be shown once.

What was measured:
[1] = system: HCV replicon cells, NS3 R155K variant
Description: (§1) The stable wild-type (mADE) and variant HCV sub-genomic replicon cell lines were generated using the T7 RNA runoff transcripts from the corresponding high efficiency Con1 replicon plasmids.
(§2) The stable wild-type and variant HCV sub-genomic replicon cell lines were generated using the 17 RNA runoff transcripts from the corresponding high efficiency Con1 replicon plasmids.

[2] = system: wild-type HCV replicon Con1-mADE cells; conditions: for Fold change of replicon IC50: wild-type replicon relative to itself
Description: as §1, §2

[3] = system: HCV replicon cells, NS3 R155M variant
Description: as §1, §2

[4] = system: HCV replicon cells, NS3 R155T variant; conditions: for Fold change of replicon IC50: R155T IC50 divided by wild-type replicon IC50
Description: as §1, §2

[5] = target: HCV NS3 protease T54A mutant (UniProt P27958, T1080A, species not given); conditions: enzyme IC50 vs genotype 1a HCV-H reference strain
[6] = target: HCV NS3 protease A156T mutant (UniProt P27958, A1182T, species not given); conditions: enzyme IC50 vs genotype 1a HCV-H reference strain
[7] = system: wild-type HCV replicon Con1-mADE cells; test: microbe, parasite or virus in culture; conditions: Hepatitis C virus, 48 h, read-out: Replicon IC50
Description: as §1, §2

[8] = system: HCV variant mixture in patient plasma; test: Average phenotype for each patient; type: in vivo, patients; conditions: for Average Phenotype: individual subjects
Description: The genotypic analyses performed here allowed a detailed examination of the relative proportion of different resistant mutants within each patient. To better understand the level of phenotypic resistance conferred by these viral mixtures, exploratory analyses were done to obtain an average phenotype for each patient. The percent of virions with a given single or double mutation was multiplied by the average fold change in enzyme IC50 for that given mutant (Table 3), and then all values were added for each patient. […] An analysis correlating pharmacokinetic data with resistance patterns is currently underway.

[9] = patients that continued to decline, follow-up
[10] = plateau group of patients, Day 14
[11] = rebound group of patients, Day 14
[12] = rebound group of patients, follow-up

In the case of IFN-α, the “Fold change of replicon IC50” value ([1]; R155K IC50 divided by wild-type replicon IC50) is reported as 1.3 ± 1.1 fold, the “Replicon IC50” value ([1]; R155K replicon, 48-h assay, mean ± SD of three experiments) is reported as 15.2 ± 12.3 U/ml and the “Fold change of replicon IC50” value [2] is reported as 1.0 ± 0.1 fold. The “Replicon IC50” value ([2]; wild-type replicon, 48-h assay, mean ± SD of three experiments) was 11.6 ± 1.1 U/ml, the “Fold change of replicon IC50” value ([3]; R155M IC50 divided by wild-type replicon IC50) was 0.4 ± 0.1 fold and the “Replicon IC50” value ([3]; R155M replicon, 48-h assay, mean ± SD of three experiments) was 4.9 ± 1.0 U/ml. For the same compound, the “Fold change of replicon IC50” value [4] was 0.4 ± 0.3 fold and the “Replicon IC50” value ([4]; R155T replicon, 48-h assay, mean ± SD of three experiments) was 4.8 ± 3.3 U/ml.

COc1ccc2c(O[C@@H]3C[C@H]4C(=O)N[C@]5(C(=O)O)C[C@H]5/C=C\CCCCC[C@H](NC(=O)OC5CCCC5)C(=O)N4C3)cc(-c3csc(NC(C)C)n3)nc2c1 [BILN 2061] showed a Fold change [5] of 2.3 fold and a Fold change [6] greater than 183 fold.

For NC(=O)c1ncn([C@@H]2O[C@H](CO)[C@@H](O)[C@H]2O)n1 [Ribavirin, 1-beta-D-ribofuranosyl-1H-1,2,4-triazole-3-carboxamide], the “Fold change of replicon IC50” value [2] was 1.0 ± 0.3 fold, the IC50 [7] was 58 ± 18 µM and the “Fold change of replicon IC50” value [4] was 0.6 ± 0.3 fold.

With CCC[C@H](NC(=O)[C@@H]1[C@H]2CCC[C@H]2CN1C(=O)[C@@H](NC(=O)[C@@H](NC(=O)c1cnccn1)C1CCCCC1)C(C)(C)C)C(=O)C(=O)NC1CC1 [VX-950] the IC50 [7] was 0.485 ± 0.108 µM, the “Average Phenotype” value ([8]; 450 mg, FU (7-10 days after ETR)) was 28.94 and 3.13 and 8.65 and 1.14 and 0.83 and 29.43 and 14.81 and the “Average Phenotype” value ([8]; 750 mg, ETR (Day 14)) was 466.14 and 466.00. The “Average Phenotype” value ([8]; 750 mg, FU (7-10 days after ETR)) was 9.33 and 45.74 and 126.48 and 9.65 and 3.17 and 4.92 and 0.00, the “Average Phenotype” value ([8]; 1250 mg, ETR (Day 14)) was 10.15 and 26.13 and 9.38 and 14.39 and 14.59 and 47.49 and 147.96 and 25.96 and 466.00 and the “Average Phenotype” value ([8]; 1250 mg, FU (7-10 days after ETR)) was 9.39 and 26.03 and 10.65 and 12.33 and 15.28 and 15.38 and 7.93 and 1.87 and 30.97. For the same compound, the “Average phenotype, mean value” [8, 9] was 4, the “Average phenotype, range” value [8, 9] was 0-10 and the “Average phenotype, mean value” [8, 10] was 272. The “Average phenotype, range” value [8, 10] was 26-466, the “Average phenotype, mean value” ([8]; plateau group of patients, follow-up) was 32 and the “Average phenotype, mean value” [8, 11] was 27. For the same compound, the “Average phenotype, range” value [8, 11] was 6-70, the “Average phenotype, mean value” [8, 12] was 15 and the “Average phenotype, range” value [8, 12] was 3-29.
